Results as given in patent US6166290A, “Glutathione-S-conjugate transport in plants” (The Trustees of the University of Pennsylvania, priority 1997, dated 2000).
Read-outs that look alike come from different tables or passages of the source.

Key:
[1] = tested on: membrane vesicles purified from pYES3-transformed DTY168 cells; experiment: DNP-GS uptake by membrane vesicles from pYES3 (empty vector)-transformed DTY168 cells; format: biochemical, Saccharomyces cerevisiae
Description: S. cerevisiae strain DTY168 (MATα his6, leu2-3, -112, ura3-52 ycf1::hisG) was transformed with pYES3-AtMRP1 or empty vector lacking the AtMRP1 insert (pYES3) by the LiOAc/PEG method (Giest et al., 1991, Yeast 7:253-263) and selected for uracil prototrophy by plating on AHC medium containing tryptophan (Kim et al., 1994, supra).
For the preparation of membrane vesicles, 15 ml volumes of stationary phase cultures of the transformants were diluted into 1 L of fresh AHC medium and grown to an OD600 nm of about 1.2. Membrane vesicles were purified as described herein and in Kim et al. (1995, supra).
DNP-GS uptake was measured as described herein in 200 μl reaction volumes containing 3 mM ATP, 3 mM MgSO4, 5 μM gramicidin-D, 10 mM creatine phosphate, 16 units/ml creatine kinase, 50 mM KCl, 1 mg/ml BSA, 400 mM sorbitol, 25 mM Tris-Mes (pH 8.0) and the indicated concentrations of [^3 H]DNP-GS (17.4 mCi/mmol).

[2] = tested on: vacuolar membrane vesicles purified from Arabidopsis leaf / root; conditions: cited from earlier work
[3] = target: T1, YCF1 (vacuolar membrane vesicles purified from DTY165 cells) (Saccharomyces cerevisiae, UniProt P39109); experiment: biochemical; format: biochemical; conditions: read-out: Ki(DNP-GS) for inhibition of Cd.GS2 uptake
T1 construct: endogenous in cells; host or cells: S. cerevisiae DTY165 (wild type YCF1), vacuolar membrane vesicles
T1 sequence (P39109 whole entry): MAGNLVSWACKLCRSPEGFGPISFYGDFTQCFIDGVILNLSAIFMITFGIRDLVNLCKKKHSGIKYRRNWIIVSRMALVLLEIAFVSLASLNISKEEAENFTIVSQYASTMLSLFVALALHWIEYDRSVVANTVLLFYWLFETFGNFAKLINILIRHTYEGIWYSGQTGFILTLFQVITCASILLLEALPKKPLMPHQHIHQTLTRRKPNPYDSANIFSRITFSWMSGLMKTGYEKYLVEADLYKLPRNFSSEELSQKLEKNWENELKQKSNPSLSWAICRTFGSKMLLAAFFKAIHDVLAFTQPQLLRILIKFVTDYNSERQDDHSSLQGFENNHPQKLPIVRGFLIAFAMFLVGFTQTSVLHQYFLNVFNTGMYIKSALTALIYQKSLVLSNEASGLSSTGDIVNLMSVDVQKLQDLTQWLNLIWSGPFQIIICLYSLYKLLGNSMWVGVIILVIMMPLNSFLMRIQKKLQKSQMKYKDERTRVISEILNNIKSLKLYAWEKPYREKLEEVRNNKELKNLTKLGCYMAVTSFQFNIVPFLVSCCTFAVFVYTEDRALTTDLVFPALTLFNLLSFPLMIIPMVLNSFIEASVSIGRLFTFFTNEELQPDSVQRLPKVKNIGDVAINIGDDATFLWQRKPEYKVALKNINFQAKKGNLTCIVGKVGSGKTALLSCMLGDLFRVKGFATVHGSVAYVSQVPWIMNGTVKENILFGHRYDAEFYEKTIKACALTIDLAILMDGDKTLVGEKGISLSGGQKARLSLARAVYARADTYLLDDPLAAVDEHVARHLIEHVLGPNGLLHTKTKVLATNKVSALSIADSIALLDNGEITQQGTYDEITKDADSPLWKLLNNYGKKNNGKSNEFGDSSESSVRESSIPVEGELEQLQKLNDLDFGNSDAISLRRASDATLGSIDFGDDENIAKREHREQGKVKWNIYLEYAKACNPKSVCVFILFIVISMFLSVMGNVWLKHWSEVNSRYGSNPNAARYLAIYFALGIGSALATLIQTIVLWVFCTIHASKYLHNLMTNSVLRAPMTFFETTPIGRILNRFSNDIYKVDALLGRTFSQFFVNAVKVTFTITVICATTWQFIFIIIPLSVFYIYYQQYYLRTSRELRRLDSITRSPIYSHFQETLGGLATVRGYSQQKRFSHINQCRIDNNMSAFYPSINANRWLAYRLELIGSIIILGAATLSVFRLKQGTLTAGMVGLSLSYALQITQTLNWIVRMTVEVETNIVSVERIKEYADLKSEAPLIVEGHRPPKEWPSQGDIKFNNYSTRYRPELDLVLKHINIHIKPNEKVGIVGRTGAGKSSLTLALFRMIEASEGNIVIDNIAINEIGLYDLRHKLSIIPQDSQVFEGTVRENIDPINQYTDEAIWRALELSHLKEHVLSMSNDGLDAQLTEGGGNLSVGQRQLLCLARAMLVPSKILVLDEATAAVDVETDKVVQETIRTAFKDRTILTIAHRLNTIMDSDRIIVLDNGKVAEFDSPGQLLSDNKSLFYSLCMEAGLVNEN
Method in brief: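 Vacuolar vesicles from wild-type (DTY165) or ycf1Δ (DTY167) yeast, washed free of DTT/EGTA into glycerol/Tris-Mes pH 8.0. MgATP-energized, uncoupler-insensitive uptake of 109Cd2+, GSH or purified radiolabeled Cd·GSn complexes measured at 25°C. Medium: 3 mM ATP/MgSO4, ATP-regenerating system, 5 μM gramicidin-D, Tris-Mes pH 8.0; washes contained 100 μM CdSO4.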

[4] = tested on: vacuolar membrane vesicles purified from Beta vulgaris storage root; conditions: cited from earlier work
[5] = tested on: vacuolar GS-X pump (vacuolar membrane vesicles, V. radiata hypocotyls); conditions: cited from earlier work
[6] = tested on: vacuolar GS-X pump (vacuolar membrane vesicles, V. radiata hypocotyls); experiment: GS-conjugate uptake by vacuolar membrane vesicles from etiolated hypocotyls of V. radiata; format: biochemical, Vigna radiata

For `N[C@@H](CCC(=O)N[C@@H](CSc1ccc([N+](=O)[O-])cc1[N+](=O)[O-])C(=O)NCC(=O)O)C(=O)O` [DNP-GS, S-(2,4-dinitrophenyl)glutathione], the “initial rate of DNP-GS uptake” value ([1]; 61.3 μM DNP-GS) is listed as 0.1 nmol/mg/min, the Km ([1]; read-out: apparent Km for DNP-GS uptake) is listed as greater than 500 µM and the “rate of MgATP-dependent, uncoupler-insensitive DNP-GS uptake” value (“rate of MgATP-dependent” below) ([2]; Arabidopsis leaf) is listed as 2.3 nmol/mg/20 minutes. The “rate of MgATP-dependent” value ([2]; Arabidopsis root) was 3.8 nmol/mg/20 minutes, the Ki [3] was 11.3 ± 2.1 µM and the “rate of MgATP-dependent” value [4] was 18.2 nmol/mg/20 minutes. For the same molecule, the “rate of MgATP-dependent” value ([5]; Vigna radiata hypocotyl) was 5.8 nmol/mg/20 minutes, the Km estimated previously in this system [5] was 80 µM and the “Vmax of GS-X pump” value ([5]; comparison value for DNP-GS) was 12 nmol/mg/20 minutes. For the same molecule, the IC50 ([6]; V. radiata, read-out: I50 for uptake of C3G-GS) was 104 µM, the IC50 ([6]; read-out: I50 for uptake of IAA-GS) was 124 µM and the “inhibition of MgATP-dependent [3H]medicarpin-GS uptake” value ([6]; vanadate 10 μM, DNP-GS 100 μM, gramicidin D) was “more than 85%”.
